# Positions of bridges follow the written chain, without caps; N, C: chain ends. Non-standard residues stand in square brackets, D forms with d. Residues, ends and D or L forms follow the SMILES beside them. *: point of attachment. S(2-cyclohexylethyl) = C1CCC(CCS*)CC1; S(3-Cl-benzyl) = Clc1cccc(CS*)c1; X3 = c1ccc(Oc2ccc(CS*)cc2)cc1; X5 = c1ccc(-c2ccc(CS*)cc2)cc1; S(3-Methylbutyl) = CC(C)CCS*; X6 = c1ccc(-c2ccc(S*)cc2)cc1; Dab = NCC[C@H](N)C(=O)O; X1 = CC(C)CCCCS*; X4 = CCCCCCS*
# What was measured:
# [1] = system: P. aeruginosa (ATCC 27853); format: cell-based; details: ATCC 27853
# Protocol: (§1) Minimum inhibitory concentrations (MICs) on relevant Gram-negative bacteria were determined by broth microdilution, in accordance with CLSI guidelines. Indicated bacteria were taken from glycerol stocks and incubated overnight on blood agar at 37 °C. Well-isolated colonies were taken, suspended in TSB (5 mL), and grown to an OD600 of 0.5. Compounds to be tested were dissolved in DMSO (6.4 mg/mL), diluted in cation-adjusted Mueller–Hinton Broth (CAMHB) (12.5 and 20 μg/mL Mg^2+ and Ca^2+, respectively), and diluted serially on polypropylene microtiter plates. To the diluted compounds (50 μL per well) was added 50 μL of relevant bacterial suspension, to yield a final concentration of 10^6 CFU/mL. Plates were covered by adhesive gas-permeable membranes and incubated at 37 °C. MIC was read out as the lowest concentration that inhibited visual bacterial growth. Shown values are consistent results from at least duplicate experiments.
# [2] = system: K. pneumoniae (ATCC 13883); format: cell-based; details: ATCC 13883
# Protocol: as §1
# [3] = system: A. baumannii (ATCC 19606); format: cell-based; details: ATCC 19606
# Protocol: as §1
# E. coli (ATCC 25922) = format: cell-based; details: ATCC 25922
# Protocol: as §1
# [4] = system: differentiated conditionally immortalized PTECs (ciPTECs, OAT-1); assay: ciPTEC toxicity assay (PrestoBlue); format: cell-based, human
# Protocol: ciPTECs (OAT-1) cells,[52],[53] grown to 90–100% confluence, were washed by Hanks’ balanced salt solution (HBSS; Gibco, Life Technologies, Paisley, U.K.) and detached by accutase (4 mL) for 5 min at 37 °C. The cells were then suspended in fresh medium (DMEM/F-12, supplemented with 10% fetal calf serum, insulin (5 μg/mL), transferrin (5 μg/mL), selenium (5 μg/mL) hydrocortisone (35 ng/mL), Epidermal Growth Factor (10 ng/mL) and tri-iodothyronine (40 pg/mL)). Cell density was adjusted to 2.0 × 10^5 cells/mL, of which 100 μL was added to each well of a 96-well plate. The cells were incubated for 24 h at 33 °C, followed by 6 days at 37 °C, in a humidified atmosphere containing 5% (v/v) CO2. The medium was refreshed every second or third day.
# Compounds were dissolved and serially diluted in serum-free medium. Differentiated cells were washed once with HBSS and serially diluted compounds (80 μL/well) were transferred to the ciPTEC-containing plate. Compounds were incubated for 24 h at 37 °C; the cells were washed by HBSS, followed by incubation with 10% PrestoBlue cell viability reagent (Thermo Scientific, Vienna, Austria) in HBSS at 37 °C in the dark. Fluorescence was recorded (excitation: 530 nm, emission: 590 nm). Raw data are corrected for PrestoBlue background fluorescence and reported relative to the no-treatment control (cells with medium only). Viability data were fitted with GraphPad Prism software (version 5.03; GraphPad Software, La Jolla, CA), by nonlinear regression with 0 as bottom constraint. Presented data are based on triplicates.
# Toxicity assessment on PTECs
# Table S1. TC50 values for polymyxin analogues. Toxicity assessment on proximal tubular epithelial cells
# performed using PrestoBlue™ assay. TC50 values are derived after non-linear regression analysis on cell viability
# correspond to data obtained from 2 different batches of cells/analyses on different days. As the value for
# polymyxin B differs 2-fold, values in the manuscript are presented relative to the polymyxin B value.
# Compound TC50 (µ M) Compound TC50 (µ M)
# Polymyxin B 80 Polymyxin B 41
# Figure S3. Representative traces of ciPTECs’ viability after incubation with analogues for 24 hours. Shown data are based on […]
SMILES,MIC P. aeruginosa (ATCC 27853) [1] [µg/mL],MIC K. pneumoniae (ATCC 13883) [2] [µg/mL],MIC A. baumannii (ATCC 19606) [3] [µg/mL],MIC E. coli (ATCC 25922) (E. coli (ATCC 25922)) [µg/mL],"TC50, Day 1 [4] [µM]",ciPTEC Toxicity Index (relative to polymyxin B) [4],"TC50, Day 2 [4] [µM]"
CC(C)CCSSC[C@H](N)C(=O)N[C@H](C(=O)N[C@@H](CCN)C(=O)N[C@H]1CCNC(=O)[C@H]([C@@H](C)O)NC(=O)[C@H](CCN)NC(=O)[C@H](CCN)NC(=O)[C@H](CC(C)C)NC(=O)[C@@H](Cc2ccccc2)NC(=O)[C@H](CCN)NC1=O)[C@@H](C)O [Compound 18a] (H-C(S(3-Methylbutyl))T[Dab][Dab][Dab][dF]L[Dab][Dab]T; lactam 4-C),2,8,>32,16,786,9.8,–
CC(C)C[C@@H]1NC(=O)[C@@H](Cc2ccccc2)NC(=O)[C@H](CCN)NC(=O)[C@@H](NC(=O)[C@H](CCN)NC(=O)[C@@H](NC(=O)[C@H](N)CSSCc2ccc(Oc3ccccc3)cc2)[C@@H](C)O)CCNC(=O)[C@H]([C@@H](C)O)NC(=O)[C@H](CCN)NC(=O)[C@H](CCN)NC1=O [Compound 37] (H-[dC](X3)T[Dab][Dab][Dab][dF]L[Dab][Dab]T; lactam 4-C),4,1,1,4,–,1.8,72
CCCCCCSSC[C@@H](N)C(=O)N[C@H](C(=O)N[C@@H](CCN)C(=O)N[C@H]1CCNC(=O)[C@H]([C@@H](C)O)NC(=O)[C@H](CCN)NC(=O)[C@H](CCN)NC(=O)[C@H](CC(C)C)NC(=O)[C@@H](Cc2ccccc2)NC(=O)[C@H](CCN)NC1=O)[C@@H](C)O [Compound 17b] (H-[dC](X4)T[Dab][Dab][Dab][dF]L[Dab][Dab]T; lactam 4-C),2,0.5,1,2,240,3.0,–
CC(C)CCCCSSC[C@@H](NC(=O)CN)C(=O)N[C@H](C(=O)N[C@@H](CCN)C(=O)N[C@H]1CCNC(=O)[C@H]([C@@H](C)O)NC(=O)[C@H](CCN)NC(=O)[C@H](CCN)NC(=O)[C@H](CC(C)C)NC(=O)[C@@H](Cc2ccccc2)NC(=O)[C@H](CCN)NC1=O)[C@@H](C)O [Compound 24b] (H-G[dC](X1)T[Dab][Dab][Dab][dF]L[Dab][Dab]T; lactam 5-C),2,1,1,2,–,–,63
CC(C)C[C@@H]1NC(=O)[C@@H](Cc2ccccc2)NC(=O)[C@H](CCN)NC(=O)[C@@H](NC(=O)[C@H](CCN)NC(=O)[C@@H](NC(=O)[C@H](N)CSSCc2cccc(Cl)c2)[C@@H](C)O)CCNC(=O)[C@H]([C@@H](C)O)NC(=O)[C@H](CCN)NC(=O)[C@H](CCN)NC1=O [Compound 38] (H-[dC](S(3-Cl-benzyl))T[Dab][Dab][Dab][dF]L[Dab][Dab]T; lactam 4-C),4,0.5,1,1,–,–,74
CC(C)CCSSC[C@@H](NC(=O)CN)C(=O)N[C@H](C(=O)N[C@@H](CCN)C(=O)N[C@H]1CCNC(=O)[C@H]([C@@H](C)O)NC(=O)[C@H](CCN)NC(=O)[C@H](CCN)NC(=O)[C@H](CC(C)C)NC(=O)[C@@H](Cc2ccccc2)NC(=O)[C@H](CCN)NC1=O)[C@@H](C)O [Compound 22b] (H-G[dC](S(3-Methylbutyl))T[Dab][Dab][Dab][dF]L[Dab][Dab]T; lactam 5-C),1,0.5,1,2,163,–,–
CCCCCCSSC[C@H](N)C(=O)N[C@H](C(=O)N[C@@H](CCN)C(=O)N[C@H]1CCNC(=O)[C@H]([C@@H](C)O)NC(=O)[C@H](CCN)NC(=O)[C@H](CCN)NC(=O)[C@H](CC(C)C)NC(=O)[C@@H](Cc2ccccc2)NC(=O)[C@H](CCN)NC1=O)[C@@H](C)O [Compound 17a] (H-C(X4)T[Dab][Dab][Dab][dF]L[Dab][Dab]T; lactam 4-C),2,4,>32,8,421,5.3,–
CCCCCCSSC[C@@H](NC(=O)CN)C(=O)N[C@H](C(=O)N[C@@H](CCN)C(=O)N[C@H]1CCNC(=O)[C@H]([C@@H](C)O)NC(=O)[C@H](CCN)NC(=O)[C@H](CCN)NC(=O)[C@H](CC(C)C)NC(=O)[C@@H](Cc2ccccc2)NC(=O)[C@H](CCN)NC1=O)[C@@H](C)O [Compound 21b] (H-G[dC](X4)T[Dab][Dab][Dab][dF]L[Dab][Dab]T; lactam 5-C),2,1,1,2,357,4.4,–
CC(C)C[C@@H]1NC(=O)[C@@H](Cc2ccccc2)NC(=O)[C@H](CCN)NC(=O)[C@@H](NC(=O)[C@H](CCN)NC(=O)[C@@H](NC(=O)[C@@H](CSSCCC2CCCCC2)NC(=O)CN)[C@@H](C)O)CCNC(=O)[C@H]([C@@H](C)O)NC(=O)[C@H](CCN)NC(=O)[C@H](CCN)NC1=O [Compound 23b] (H-G[dC](S(2-cyclohexylethyl))T[Dab][Dab][Dab][dF]L[Dab][Dab]T; lactam 5-C),1,1,1,2,–,–,58
CC(C)C[C@@H]1NC(=O)[C@@H](Cc2ccccc2)NC(=O)[C@H](CCN)NC(=O)[C@@H](NC(=O)[C@H](CCN)NC(=O)[C@@H](NC(=O)[C@H](N)CSSCc2ccc(-c3ccccc3)cc2)[C@@H](C)O)CCNC(=O)[C@H]([C@@H](C)O)NC(=O)[C@H](CCN)NC(=O)[C@H](CCN)NC1=O [Compound 36] (H-[dC](X5)T[Dab][Dab][Dab][dF]L[Dab][Dab]T; lactam 4-C),2,1,1,4,–,1.7,68
CC(C)C[C@@H]1NC(=O)[C@@H](Cc2ccccc2)NC(=O)[C@H](CCN)NC(=O)[C@@H](NC(=O)[C@H](CCN)NC(=O)[C@@H](NC(=O)[C@H](N)CSSc2ccc(-c3ccccc3)cc2)[C@@H](C)O)CCNC(=O)[C@H]([C@@H](C)O)NC(=O)[C@H](CCN)NC(=O)[C@H](CCN)NC1=O [Compound 29b] (H-[dC](X6)T[Dab][Dab][Dab][dF]L[Dab][Dab]T; lactam 4-C),8,2,8,8,–,–,–

# Reference: PMC9743094, “Synthesis and Evaluation of Polymyxins Bearing Reductively Labile Disulfide-Linked Lipids” (Journal of Medicinal Chemistry, 2022)
